Data set [1] deals with T1, VAP-1/SSAO (Homo sapiens (Human), UniProt Q16853). In words: Human VAP-1 enzyme activity assay (Amplex Red Monoamine Oxidase kit). Format: biochemical. Conditions: 10 nM VAP-1 enzyme, 30 min preincubation, benzylamine substrate; read-out: Human Recombinant VAP-1/SSAO Enzyme Inhibitory Activity IC50. As to the method: Human VAP-1 enzyme activity assay:
The inhibition of the sample on VAP-enzyme activity was measured by using an Amplex® Red Monoamine Oxidase kit (Invitrogen #A12214). 100 nL of the gradiently-diluted to-be-tested compound (solvent DMSO) was added to a 384-well plate. 25 μL of 10 nM VAP-1 enzyme solution was added and incubated for 30 minutes at room temperature. A substrate mixture of VAP-1 enzyme (200 μM Amplex Red, 1 U/mL HRP, 1 mM Benzylamine) was added and incubated for 60 minutes at room temperature. After the incubation, the fluorescent signal was read with a microplate reader Envision (excitation light wavelength 530-560 nm, emission light wavelength 590 nm). The fluorescence signal value after the background signal was removed was analyzed by Prism software, and the IC50 of the sample against the VAP-1 enzyme was calculated.

Data set [2] concerns the target T1, VAP-1/SSAO. In words: VAP-1 cell activity assay (HUVEC or CHO cells transfected with VAP-1/pCDNA (3.1) plasmid, Amplex Red). In kind it is cell-based. Particulars: HUVEC or CHO cells transfected with VAP-1 plasmid; read-out: VAP-1/SSAO Cellular Inhibitory Activity IC50. As to the method: The inhibition of the sample on VAP-1 cell activity was measured by using an Amplex® Red Monoamine Oxidase kit (Invitrogen #A12214).
The cultured HUVEC or CHO cells were plated into a 6-well plate at a density of 0.8 M/well, placed in a 37° C., 5% CO2 incubator for incubation for 24 hours, and then the cells was transferred with a Lipo2000 reagent and a VAP-1/pCDNA (3.1) plasmid, and liquid was changed for the cells after 5 hours (Lipo2000 was toxic to the cells); after 24 hours, the cells were digested and plated into 384-well plates with a density of 25 μl, 10000 cells/well, and liquid was replaced with medium without FBS for the cells after 6-7 hours, and the cell plates were incubated overnight at 37° C. in a 5% CO2 incubator.
1) Dilution of the compound: serial dilution in 4× gradient was carried out with 100% DMSO, 10 points were diluted, the starting concentration of the to-be-tested compound was 0.5 mM (final concentration was 1 μM); 100 nl of compound solution was transferred to a 384-well cell assay plate with ECHO. Negative control wells: 100 nl of DMSO; background control wells: 100 nl DMSO+25 μL medium.
2) The reaction was carried out in the dark at room temperature for 30 min.
3) Preparation of Amplex Red reagent+HRP+benzylamine substrate working solution: Amplex Red reagent+HRP+benzylamine substrate working solution (200 μM Amplex Red reagent+1 U/mL HRP+1 mM benzylamine): 45 μl of 20 mM Amplex Red reagent mother solution, 22.5 μl of 200 U/ml horseradish peroxidase (HRP) mother solution and 45 ul of 100 mM benzylamine were tanken and added to 4.3875 ml of 1× reaction buffer.
4) After 30 min, 25 μl of the substrate working solution was added to a 384-well plate, and a final concentration was 100 μM Amplex Red reagent+0.5 U/mL HRP+0.5 mM benzylamine, respectively.
5) The reaction was carried out in the dark at room temperature for 60 minutes, and the fluorescence value was measured by Envision: the excitation wave was 535 nm, and the emission wave was 590 nm.
6) Inhibition rate calculation formula: % inhibition rate=(1−(test hole minus background−positive control well minus background)/(negative control well minus background-positive control well minus background))*100
7) The data were analyzed with Prism. The IC50 of the sample against VAP-1 cells was calculated.

The target of another data set is hERG potassium channel (Homo sapiens (Human), UniProt Q12809). Put plainly: Inhibition test of hERG potassium ion channel (automatic patch clamp, CHO-hERG cells). In kind it is cell-based. The protocol: The effect of the to-be-tested compound on the potassium ion channel of hERG was detected by a fully automatic patch clamp method.
The cells stably expressing hERG potassium channel used in the experiment were obtained from CHO-hERE of Aviva Biosciences, and CHO-hERG was cultured in 5% CO2 at 37° C.
CHO-hERG cells prepared for the experiment were cultured for at least two days, and the cell density reached 75% or more. Prior to the start of the experiment, cells were digested with TrypLE and then resuspended in extracellular fluid to collect the cells.
The to-be-tested compound and the positive control Amitriptyline were dissolved in DMSO to a certain concentration of the stock solution, and then diluted according to different gradients, and finally added to the extracellular fluid in a certain ratio, and diluted to a concentration to be measured. Visual inspection was performed to see if there was any precipitation before the start of the experiment. Finally, the concentration of DMSO in the to-be-tested solution and the positive control Amitriptyline should not exceed 0.3%.
The clamping potential was kept at −80 mv, first a voltage stimulation of −50 mv was given for 80 ms to record the cell leakage current value, and then was depolarized to +20 mv to be maintained for 4800 ms, the channel of hERG was open, and then repolarized to −50 mv to be maintained 5000 ms, hERG tail current was led out and recorded, and finally, the voltage was returned to the clamping potential of −80 mv to be maintained for 3100 ms. The above voltage stimulation was repeated once every 15000 ms.
hERG QPatch^HTX experiment was performed at room temperature. A whole cell protocol, a voltage stimulation protocol and a compound detection protocol were established on the software of QPatch Assay Software 5.2 (Sophion Bioscience).
First, 30 repeated set voltage stimulations were performed, which was the baseline area for subsequent analysis, followed by the addition of 5 μl of extracellular fluid, repeated for three times. The concentration of each compound added in sequence was repeated three times in a volume of 5 μl. The cells were incubated for at least 5 min at each test concentration. During the entire recording process, the indicators needed to meet the data analysis acceptance criteria. If the standard was not met, the cells would not be included in the analysis scope, and the compounds would be retested. The above recording process was automatically operated by Qpatch analysis software. […]
In each complete current record, based on the percentage of peak current in the negative control, the percent inhibition of the concentration of each compound can be calculated. […]
A general note: hERG is a cardiac potassium channel; its block is linked to QT prolongation.

A further data set concerns the target CYP2C19 (Homo sapiens (Human), UniProt P33261). Put plainly: Human liver microsomal CYP inhibition assay. Particulars: human liver microsomes, 5-in-1 probe substrate. Format: in vitro ADME. As to the method: (§1) The purpose of the study was to evaluate the inhibition of the test sample on human liver microsomal cytochrome P450 isozymes (CYP1A2, CYP2C9, CYP2C19, CYP2D6, and CYP3A4) by using the CYP isozyme 5-in-1 probe substrate.
(§2) Mixed human liver microsomes (HLM) were purchased from Corning Inc. (Steuben, N.Y., USA) or XenoTech, LLC. (Lenexa, Kans., USA) or other suppliers, and stored at the temperature below −70° C. prior to use.
(§3) A series of diluted test sample working solution were added to an incubation system containing cofactors of human liver microsomes, a probe substrate and a circulation system, and the control without a test substance but containing a solvent was used as enzyme activity control (100%). The concentration of the metabolite produced by the probe sample in the sample was determined by liquid chromatography-tandem mass spectrometry (LC-MS/MS). Non-linear regression analysis was performed on the concentration of the average percent activity of the test sample by using SigmaPlot (V.11). The IC50 value was calculated by a three-parameter or four-parameter recursive logarithmic equation.
On the technique in general: Liver microsomes are a subcellular fraction often used to study metabolism.

A further data set deals with CYP2C9 (Homo sapiens (Human), UniProt P11712). In words: Human liver microsomal CYP inhibition assay. Format: in vitro ADME. Particulars: human liver microsomes, 5-in-1 probe substrate. The protocol:
as §1, §2, §3

The target of the next data set is CYP2D6 (Homo sapiens (Human), UniProt P10635). In words: Human liver microsomal CYP inhibition assay. Format: in vitro ADME. Particulars: human liver microsomes, 5-in-1 probe substrate. As to the method: as §1, §2, §3
In the next data set the target is CYP1A2 (Homo sapiens (Human), UniProt P05177). In words: Human liver microsomal CYP inhibition assay. In kind it is in vitro ADME. Particulars: human liver microsomes, 5-in-1 probe substrate. As to the method:
as §1, §2, §3

The next data set has as its target CYP3A4 (Homo sapiens (Human), UniProt P08684). In words: Human liver microsomal CYP inhibition assay. In kind it is in vitro ADME. Conditions: human liver microsomes, 5-in-1 probe substrate. As to the method:
as §1, §2, §3

Data set [3] in a line: Distribution of compounds in liver and blood of CD-1 mice. Format: in vivo. Particulars: single oral dose. The protocol: Experimental purpose: distribution of compounds in liver and blood of CD-1 mice was tested;
CD-1 Mice (male, 25-35 g, 6-9 weeks old, Shanghai Slack);
Experimental procedure: after oral administration, the drug was distributed in the liver and blood of rodents, candidate compounds in the experiment were formulated into a clear solution to be administered to mice in a single oral dose. The oral solvent was a certain proportion of an aqueous solution of hydroxypropyl P-cyclodextrin or a physiological saline solution. The concentration of the drug in the liver and blood was measured at 1 hour and 4 hours after administration.

Eleven compounds from patent publication US11001563B2, “SSAO inhibitor” (SHANDONG DANHONG PHARMACEUTICAL CO., LTD., priority 2017, dated 2021) can be followed below.

T1 sequence (Q16853 whole entry): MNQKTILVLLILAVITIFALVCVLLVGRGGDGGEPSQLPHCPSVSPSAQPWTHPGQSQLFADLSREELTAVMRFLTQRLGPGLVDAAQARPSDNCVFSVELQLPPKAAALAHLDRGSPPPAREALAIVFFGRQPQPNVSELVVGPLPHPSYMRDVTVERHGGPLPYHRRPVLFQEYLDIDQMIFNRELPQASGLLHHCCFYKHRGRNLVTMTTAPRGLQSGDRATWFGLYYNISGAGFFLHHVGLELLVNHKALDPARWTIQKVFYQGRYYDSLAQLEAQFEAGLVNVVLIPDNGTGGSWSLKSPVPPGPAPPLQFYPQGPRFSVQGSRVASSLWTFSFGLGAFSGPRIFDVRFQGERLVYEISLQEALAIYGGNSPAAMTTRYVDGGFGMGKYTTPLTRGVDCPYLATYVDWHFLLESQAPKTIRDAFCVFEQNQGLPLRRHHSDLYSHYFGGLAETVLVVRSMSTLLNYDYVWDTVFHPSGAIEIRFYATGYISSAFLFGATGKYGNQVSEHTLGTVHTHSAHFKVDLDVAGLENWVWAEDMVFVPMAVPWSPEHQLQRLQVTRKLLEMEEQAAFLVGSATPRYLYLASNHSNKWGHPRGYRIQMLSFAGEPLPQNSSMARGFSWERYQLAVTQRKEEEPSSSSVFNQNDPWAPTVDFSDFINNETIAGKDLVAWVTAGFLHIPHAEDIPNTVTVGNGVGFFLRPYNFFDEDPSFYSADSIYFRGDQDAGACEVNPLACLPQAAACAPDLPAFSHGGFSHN
Chain of hERG potassium channel (Q12809 whole entry): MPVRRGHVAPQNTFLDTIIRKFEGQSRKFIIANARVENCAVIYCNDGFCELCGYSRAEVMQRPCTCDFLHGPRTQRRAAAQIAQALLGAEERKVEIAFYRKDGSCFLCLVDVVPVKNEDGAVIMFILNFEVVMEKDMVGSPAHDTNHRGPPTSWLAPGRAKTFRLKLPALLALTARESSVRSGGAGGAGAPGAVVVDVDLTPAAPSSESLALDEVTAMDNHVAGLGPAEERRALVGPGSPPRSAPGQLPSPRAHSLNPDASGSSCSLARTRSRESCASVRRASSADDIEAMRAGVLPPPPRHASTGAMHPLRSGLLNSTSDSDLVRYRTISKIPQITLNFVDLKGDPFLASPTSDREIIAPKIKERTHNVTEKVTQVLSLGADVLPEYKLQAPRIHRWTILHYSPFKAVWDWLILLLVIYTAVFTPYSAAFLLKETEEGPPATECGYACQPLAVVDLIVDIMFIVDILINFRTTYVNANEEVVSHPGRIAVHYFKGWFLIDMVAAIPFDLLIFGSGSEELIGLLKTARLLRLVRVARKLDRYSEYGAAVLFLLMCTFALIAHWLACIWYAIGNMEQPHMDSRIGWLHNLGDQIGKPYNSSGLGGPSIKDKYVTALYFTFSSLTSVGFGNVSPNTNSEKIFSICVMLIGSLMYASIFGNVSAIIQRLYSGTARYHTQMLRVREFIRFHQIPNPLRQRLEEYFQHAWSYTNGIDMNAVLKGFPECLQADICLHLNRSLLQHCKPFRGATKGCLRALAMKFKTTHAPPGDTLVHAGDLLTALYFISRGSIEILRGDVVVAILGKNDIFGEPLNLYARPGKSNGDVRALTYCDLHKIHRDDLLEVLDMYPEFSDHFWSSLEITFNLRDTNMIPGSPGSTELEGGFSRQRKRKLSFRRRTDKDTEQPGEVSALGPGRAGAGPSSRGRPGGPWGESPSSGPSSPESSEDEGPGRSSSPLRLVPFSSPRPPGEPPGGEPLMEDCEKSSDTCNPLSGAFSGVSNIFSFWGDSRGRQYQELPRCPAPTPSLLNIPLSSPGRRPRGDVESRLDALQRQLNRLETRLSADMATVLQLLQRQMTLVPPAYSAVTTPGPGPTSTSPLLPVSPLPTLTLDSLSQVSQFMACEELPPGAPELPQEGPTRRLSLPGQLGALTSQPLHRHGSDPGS
Chain of CYP2C19 (P33261 whole entry): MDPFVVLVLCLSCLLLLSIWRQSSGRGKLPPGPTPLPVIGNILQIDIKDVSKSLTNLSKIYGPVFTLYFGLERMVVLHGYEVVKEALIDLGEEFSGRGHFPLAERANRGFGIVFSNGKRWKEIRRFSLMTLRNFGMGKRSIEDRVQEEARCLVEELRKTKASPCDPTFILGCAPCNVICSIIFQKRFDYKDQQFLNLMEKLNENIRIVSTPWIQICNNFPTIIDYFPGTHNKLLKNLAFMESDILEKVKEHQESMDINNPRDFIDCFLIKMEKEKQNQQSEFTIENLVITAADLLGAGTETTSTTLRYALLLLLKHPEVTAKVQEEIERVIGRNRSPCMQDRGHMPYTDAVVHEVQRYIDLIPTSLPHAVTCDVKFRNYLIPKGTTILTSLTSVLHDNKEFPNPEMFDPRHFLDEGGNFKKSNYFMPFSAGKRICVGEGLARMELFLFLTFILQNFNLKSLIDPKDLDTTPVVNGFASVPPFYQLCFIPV
Chain of CYP2D6 (P10635 whole entry): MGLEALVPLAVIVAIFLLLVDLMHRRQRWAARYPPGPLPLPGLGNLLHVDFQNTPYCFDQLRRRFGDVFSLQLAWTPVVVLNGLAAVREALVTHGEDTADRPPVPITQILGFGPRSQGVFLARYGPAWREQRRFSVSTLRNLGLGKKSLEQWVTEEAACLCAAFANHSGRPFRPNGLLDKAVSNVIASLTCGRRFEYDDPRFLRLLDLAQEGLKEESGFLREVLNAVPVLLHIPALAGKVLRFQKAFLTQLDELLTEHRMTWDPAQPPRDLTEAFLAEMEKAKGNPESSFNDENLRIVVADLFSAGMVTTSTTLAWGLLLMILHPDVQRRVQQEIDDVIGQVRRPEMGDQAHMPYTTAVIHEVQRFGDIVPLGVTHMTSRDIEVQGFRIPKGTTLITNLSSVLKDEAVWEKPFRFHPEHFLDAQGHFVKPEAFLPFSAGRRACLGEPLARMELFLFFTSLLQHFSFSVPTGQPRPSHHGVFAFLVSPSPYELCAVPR
Chain of CYP2C9 (P11712 whole entry): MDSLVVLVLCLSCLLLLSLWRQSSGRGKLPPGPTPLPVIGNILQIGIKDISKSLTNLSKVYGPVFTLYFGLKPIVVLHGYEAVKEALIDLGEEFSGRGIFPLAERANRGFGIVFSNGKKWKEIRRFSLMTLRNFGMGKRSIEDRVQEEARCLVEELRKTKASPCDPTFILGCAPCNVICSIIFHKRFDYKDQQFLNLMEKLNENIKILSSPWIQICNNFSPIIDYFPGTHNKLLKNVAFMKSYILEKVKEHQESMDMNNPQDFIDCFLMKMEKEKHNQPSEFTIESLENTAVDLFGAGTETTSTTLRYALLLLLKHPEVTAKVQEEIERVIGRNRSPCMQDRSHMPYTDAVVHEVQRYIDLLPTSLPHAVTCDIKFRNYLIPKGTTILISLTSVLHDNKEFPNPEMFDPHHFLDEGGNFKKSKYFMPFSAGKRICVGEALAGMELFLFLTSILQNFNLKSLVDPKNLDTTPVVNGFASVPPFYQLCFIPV
Chain of CYP3A4 (P08684 whole entry): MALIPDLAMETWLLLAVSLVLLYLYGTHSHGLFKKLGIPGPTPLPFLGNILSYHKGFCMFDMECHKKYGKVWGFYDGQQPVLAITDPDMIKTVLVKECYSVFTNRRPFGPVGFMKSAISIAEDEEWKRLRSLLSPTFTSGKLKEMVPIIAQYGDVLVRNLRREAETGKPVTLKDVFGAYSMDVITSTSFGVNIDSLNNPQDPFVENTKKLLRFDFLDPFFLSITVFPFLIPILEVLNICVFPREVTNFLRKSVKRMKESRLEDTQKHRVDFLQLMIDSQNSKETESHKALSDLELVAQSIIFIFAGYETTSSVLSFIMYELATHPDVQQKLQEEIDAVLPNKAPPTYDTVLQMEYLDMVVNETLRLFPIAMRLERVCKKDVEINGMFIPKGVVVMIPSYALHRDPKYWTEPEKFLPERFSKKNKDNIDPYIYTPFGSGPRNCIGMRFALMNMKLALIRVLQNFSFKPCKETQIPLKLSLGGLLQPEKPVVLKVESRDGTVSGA
Chain of CYP1A2 (P05177 whole entry): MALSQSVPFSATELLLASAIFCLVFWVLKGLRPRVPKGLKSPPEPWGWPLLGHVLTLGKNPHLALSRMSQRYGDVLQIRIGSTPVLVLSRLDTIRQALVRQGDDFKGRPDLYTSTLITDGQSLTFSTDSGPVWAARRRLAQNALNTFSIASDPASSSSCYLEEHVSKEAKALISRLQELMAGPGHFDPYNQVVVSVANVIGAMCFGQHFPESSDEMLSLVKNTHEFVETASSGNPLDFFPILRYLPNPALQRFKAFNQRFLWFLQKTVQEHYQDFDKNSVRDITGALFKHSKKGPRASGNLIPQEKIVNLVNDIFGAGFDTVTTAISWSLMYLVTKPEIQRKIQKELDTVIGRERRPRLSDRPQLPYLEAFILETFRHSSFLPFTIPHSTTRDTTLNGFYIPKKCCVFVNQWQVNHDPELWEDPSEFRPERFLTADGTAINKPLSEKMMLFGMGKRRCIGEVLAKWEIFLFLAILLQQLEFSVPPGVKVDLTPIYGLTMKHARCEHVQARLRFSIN

Regarding `Cc1noc(-c2ccc(OC/C(=C/F)CN)cc2)n1.Cl` [WX008], the IC50 is 0.4 nM on VAP-1/SSAO [1]; 0.3 nM on VAP-1/SSAO [2]; above 30 µM on hERG potassium channel (QPatch whole cell patch clamp, CHO-hERG, 0.24-30.00 μM). The “Inhibition of hERG potassium current (in words)” value at hERG potassium channel (conclusion statement) is listed as “weak inhibition”.

With `Cn1nc(C2(F)CC2)nc1-c1ccc(OC/C(=C/F)CN)cc1` [WX117], the IC50 at VAP-1/SSAO [1] came to 0.7 nM; on VAP-1/SSAO [2] it was 0.9 nM.

As for `NC/C(=C\F)COc1ccc(-c2nc(C3(F)CC3)n[nH]2)cc1` [WX087], the IC50 is 0.3 nM at VAP-1/SSAO [1] and 0.8 nM on VAP-1/SSAO [2].

Regarding `Cn1nc(CC(F)(F)F)nc1-c1ccc(OC/C(=C/F)CN)cc1` [WX104], the IC50 was determined as 0.3 nM on VAP-1/SSAO [1] and 0.7 nM at VAP-1/SSAO [2].

As for `CC(C)n1nc(-c2ccc(OC/C(=C/F)CN)cc2)nc1C1CC1` [WX091], the IC50 worked out at 1.2 nM on VAP-1/SSAO [1] and 1.3 nM on VAP-1/SSAO [2].

In the case of `CCn1nc(C2(F)CC2)nc1-c1ccc(OC/C(=C/F)CN)cc1` [WX118], the IC50 at VAP-1/SSAO [1] and at VAP-1/SSAO [2] was 0.7 nM each time.

Take `Cn1nc(-c2ccc(OC/C(=C/F)CN)cc2)nc1C1CCOCC1` [WX095]: the IC50 on VAP-1/SSAO [1] was determined as 2.9 nM; at VAP-1/SSAO [2], 0.2 nM.

As to `CC(C)n1nc(C(F)F)nc1-c1ccc(OC/C(=C/F)CN)cc1` [WX109], the IC50 at VAP-1/SSAO [1] is 2.8 nM; on VAP-1/SSAO [2] it was 0.7 nM.

In the case of `Cn1nc(-c2ccc(OC/C(=C/F)CN)cc2Cl)nc1N1CCOCC1` [WX107], the values for the IC50 on VAP-1/SSAO [1] and on VAP-1/SSAO [2] were 0.9 nM and 1.5 nM, respectively.

Turning to `CCn1nnc(-c2ccc(OC/C(=C/F)CN)cc2)n1` [WX014], the figures for the IC50 on VAP-1/SSAO [1] and on VAP-1/SSAO [2] were 0.8 nM and 0.3 nM, respectively.

Turning to `CC(C)(C)NC(=O)c1ccc(OC/C(=C/F)CN)cc1.Cl` [PXS-4728A, reference compound], the IC50 against CYP2C19 was 76 µM; against CYP2C9, 32 µM; against CYP2D6 it was 38 µM; at CYP1A2, 9 µM; against CYP3A4, above 50 µM. Besides, the “Liver Concentration” value in [3] (@1.0 hour) turned out to be 13140; in [3] (@4.0 hour), 2120. For the same compound, the “Liver Concentration/Plasma Concentration ratio” value in data set [3] (@1.0 hour) was 10; in [3] (@4.0 hour), 14. Further, the “Plasma Concentration” value was determined as 1470 in data set [3] (@1.0 hour) and 154 in data set [3] (@4.0 hour).
